Measurements reported in US20260240792A1, “COMPOSITIONS FOR TREATING 5-HT2 CONDITIONS AND METHODS OF USING THE SAME” (Board of Supervisors of Louisiana State University and …, priority 2022, published 2026).
Several values for one entry are separate records, joined by “and”; a condition that tells them apart may be missing. Identical values can stand only once. Entries after “also recorded” stand apart in the source; their conditions may differ.

Test system: rabbits
Test: Intraocular pressure (IOP) after topical ocular dosing in rabbits
Format: in vivo, rabbit
Settings: for Ave OS 2 hpt IOP: left eye; for Ave OS 2 hpt IOP / Avg OD 2 hpt IOP: 2 hours after dosing
Experimental: The IOP was assessed as a component of clinical outcomes for the animals in the studies described herein. The table below represents the effect of R-DOI on IOP 2 hours after dosing with the indicated concentration of R-DOI. Eyes were individually assessed and are indicated as IOP for the right (OD) or left (OS) eye.
Each eye of each rabbit was then assessed for initial IOP by tonometer.
IOP determinations were made at 30 minutes, 1 hour, 1.5 hours and 2.5 hours-eyes were examined closely for any adverse effects during these IOP measures.
3 days post treatment at the same time initial measures were made, IOP and tear film production were re-assessed to examine if effects were sustained post 1 treatment.
The IOP was assessed via a TonoVet rebound Tonometer. The tables herein (see, for example, FIG. 4) represent the effect of Compound 1 on IOP at time intervals within the first 2.5 hours after dosing with 0.01% Compound 1 in BSS with 0.5% CMC. Eyes were individually assessed and are indicated as IOP for the right (OD) or left (OS) eye. 3 days post treatment eyes were reassessed for IOP changes to see if the effects of treatment lasted over a prolonged period.
• Rabbits were assessed for clinically clear eyes by slit lamp ophthalmic scoring. All eyes of all rabbits were normal. • Each eye of each rabbit was then assessed for initial IOP by tonometer. • Each eye of each rabbit was assessed for tear film production by Schirmer's Tear Flo Strips at a 30 second interval of analysis. Tear measures were evaluated by a digital caliper to determine mm of tears collected. • Rabbits were sorted into two groups attempting to balance IOP numbers (one higher, one lower animal per group). • Following animals were treated with 50 μL of Control ophthalmic BSS/0.5% CMC or 0.01% R-DOI HCl in ophthalmic BSS/0.5% CMC. • Any apparent behavioral changes were continuously monitored over the next 2.5 hours. • IOP determinations were made at 30 minutes, 1 hour, 2 hours and 3 hours, 5 hours, 7 hours and 24 hours-eyes were examined closely for any adverse effects during these IOP measures. • 7 hours post treatment when IOP returned to control levels tear film production was assessed (see, for example, FIG. 9).
The IOP was assessed via a TonoVet rebound Tonometer. The tables herein (see, for example, FIGS. 10-11) represents the effect of R-DOI on IOP at the defined time intervals Eyes were individually assessed and are indicated as IOP for the right (OD) or left (OS) eye.

[1] = 0.01% single dose, group E5/E6, 2 h
[2] = 0.1% single dose, group E3/E4, 2 h

COc1cc(C[C@@H](C)N)c(OC)cc1I [R-DOI, (R)-1-(2,5-dimethoxy-4-iodophenyl)-2-aminopropane]
time post administration by which a significant decrease in IOP was shown (0.01% single dose): ≤ 30 min | whether the decrease in intraocular pressure was sustained (0.01% single dose, IOP followed to 24 hours): not sustained following 3 hours post treatment | Avg % change Group [1]: −53.33% | Avg Delta Eye Group [1]: −7.75 | Ave OS 2 hpt IOP (0.01% single dose): 13.50 and 7.00 | Avg OD 2 hpt IOP (0.01% single dose, right eye): 12.25 and 7.00 | % Change (OD) (0.01% single dose, right eye, 2 h vs starting IOP): −56.67% and −50.00% | Avg % change Group [2]: −30.77% | Avg Delta Eye Group [2]: −4.94 | Ave OS 2 hpt IOP (0.1% single dose): 13.25 and 9.00 | Avg OD 2 hpt IOP (0.1% single dose, right eye): 11.50 and 13.25 | effect on intraocular pressure (single topical ocular dose): decreased IOP with the greatest reduction of IOP observed for the lower R-DOI dosages; also recorded: acutely decreased intraocular pressure with a single dose
